Common to all, as to assay: Greenhouse post-emergence mixture trials, percent visual control
Format in all cases: in vivo

The subject of one assay is Velvetleaf (ABUTH). The note with it: ABUTH, 21 DAA.
Assay [1] concerns Common Lambsquarters (CHEAL). The note with it: Chenopodium album, post-emergence, 504 h, CHEAL, 21 DAA.
Another assay has as its system Corn (ZEAMX). The note with it: ZEAMX, 21 DAA.

SMILES strings stand for the structures.

The results in this text go back to patent US20260042731A1, “(2,4-DICHLOROPHENOXY)ACETIC ACID ANALOGS” (CORTEVA AGRISCIENCE LLC, priority 2022, published 2026).

Usually pest or weed control stands for how far the test organism was held down. Broadly, the plant injury is the degree to which the test organism was suppressed or injured, in per cent.

Take `Cc1nn(-c2cc(NS(C)(=O)=O)c(Cl)cc2Cl)c(=O)n1C(F)F` [Sulfentrazone, N-[2,4-dichloro-5-[4-(difluoromethyl)-4,5-dihydro-3-methyl-5-oxo-1H-1,2,4-triazol-1-yl]phenyl]-methane-sulfonamide, reference compound]: in the assay with Velvetleaf (ABUTH) (Sulfentrazone 210 g ai/ha alone (compound rate 0 g ae/ha), Trial Bridge 3), the “% Control” value was 100%. Besides, the pest or weed control at 140 g/ha was found to be 98% in the assay on Velvetleaf (ABUTH) (Abutilon theophrasti, post-emergence, 504 h, Sulfentrazone 140 g ai/ha alone (compound rate 0 g ae/ha), Trial Bridge 3) and 99% in assay [1] (Trial Bridge 3, Sulfentrazone 140 g ai/ha alone (B2 rate 0)). Further, the pest or weed control at 210 g/ha worked out at 100% in the assay on Velvetleaf (ABUTH) (Abutilon theophrasti, post-emergence, 504 h, Sulfentrazone 210 g ai/ha alone (compound rate 0 g ae/ha), Trial Bridge 3); 88% in assay [1] (Trial Bridge 3, Sulfentrazone 210 g ai/ha alone (B2 rate 0)); 100% in assay [1] (Trial 1, Trt 21, B2 0 g ae/ha, Sulfentrazone 210 g ai or ae/ha alone). The pest or weed control at 216 g/ha with Velvetleaf (ABUTH) (Abutilon theophrasti, post-emergence, 504 h, Sulfentrazone 216 g ai/ha alone (compound rate 0 g ae/ha), Trial Bridge 3) was found to be 8%. The pest or weed control at 420 g/ha with Velvetleaf (ABUTH) (Abutilon theophrasti, post-emergence, 504 h, Trial 1, Trt 25, B2 0 g ae/ha, Sulfentrazone 420 g ai or ae/ha alone) is 80%; in assay [1] (Trial Bridge 3, Sulfentrazone 420 g ai/ha alone (B2 rate 0)), 100%; in assay [1] (Trial 1, Trt 25, B2 0 g ae/ha, Sulfentrazone 420 g ai or ae/ha alone), 99%. For the same molecule, the plant injury at 420 g/ha in the assay on Corn (ZEAMX) (Zea mays, post-emergence, 504 h, Trial 1 Trt 25, B2 0 g ae/ha, Sulfentrazone 420 g ai or ae/ha alone) is 25%. In addition, the plant injury at 140 g/ha in the assay on Corn (ZEAMX) (Zea mays, post-emergence, 504 h, Sulfentrazone 140 g ai or ae/ha alone (B2 rate 0), Trial Bridge 3) amounted to 40%. The plant injury at 210 g/ha in the assay with Corn (ZEAMX) (Zea mays, post-emergence, 504 h, Sulfentrazone 210 g ai or ae/ha alone (B2 rate 0), Trial Bridge 3) was determined as 40%.
As for `CC(C)N(C)S(=O)(=O)NC(=O)c1cc(-n2c(=O)cc(C(F)(F)F)n(C)c2=O)c(F)cc1Cl` [Saflufenacil, reference compound], in the assay with Velvetleaf (ABUTH) (Abutilon theophrasti, post-emergence, 504 h, Trial 1, Trt 5, B2 0 g ae/ha, Saflufenacil 25 g ai or ae/ha alone), the pest or weed control at 25 g/ha was determined as 100%. Also, the pest or weed control at 50 g/ha with Velvetleaf (ABUTH) (Abutilon theophrasti, post-emergence, 504 h, Trial 1, Trt 9, B2 0 g ae/ha, Saflufenacil 50 g ai or ae/ha alone) worked out at 100%; in assay [1] (Trial 1, Trt 9, B2 0 g ae/ha, Saflufenacil 50 g ai or ae/ha alone), 95%. The pest or weed control at 75 g/ha amounted to 100% in the assay with Velvetleaf (ABUTH) (Abutilon theophrasti, post-emergence, 504 h, Trial 1, Trt 13, B2 0 g ae/ha, Saflufenacil 75 g ai or ae/ha alone) and 98% in assay [1] (Trial 1, Trt 13, B2 0 g ae/ha, Saflufenacil 75 g ai or ae/ha alone). Further, the plant injury at 50 g/ha in the assay on Corn (ZEAMX) (Zea mays, post-emergence, 504 h, Trial 1 Trt 9, B2 0 g ae/ha, Saflufenacil 50 g ai or ae/ha alone) was found to be 50%. The plant injury at 75 g/ha in the assay on Corn (ZEAMX) (Zea mays, post-emergence, 504 h, Trial 1 Trt 13, B2 0 g ae/ha, Saflufenacil 75 g ai or ae/ha alone) was determined as 45%.
In the case of `CCOc1nc(F)cc2nc(S(=O)(=O)Nc3c(Cl)cccc3Cl)nn12` [Diclosulam], the pest or weed control at 25 g/ha with Velvetleaf (ABUTH) (Abutilon theophrasti, post-emergence, 504 h, Trial 2 Trt 13, B2 0 g ae/ha, Diclosulam 25 g ai or ae/ha alone) was found to be 100%; in assay [1] (Trial 2 Trt 13: B2 0 g ae/ha, Diclosulam 25 g ai or ae/ha alone), 40%. Moreover, the pest or weed control at 35 g/ha in the assay on Velvetleaf (ABUTH) (Abutilon theophrasti, post-emergence, 504 h, Trial 2 Trt 16, B2 0 g ae/ha, Diclosulam 35 g ai or ae/ha alone) is 98%; with Velvetleaf (ABUTH) (Abutilon theophrasti, post-emergence, 504 h, Trial Bridge 1 Trt 4, D10 0 g ae/ha, diclosulam 35 g ai or ae/ha alone), 100%. In addition, in the assay with Corn (ZEAMX) (Trial Bridge 1, diclosulam 35 g ai or ae/ha alone (compound rate 0), single replicate), the “% Control” value is on record as 70%. Also, the plant injury at 25 g/ha in the assay on Corn (ZEAMX) (Zea mays, post-emergence, 504 h, Trial 2 Trt 13, B2 0 g ae/ha, Diclosulam 25 g ai or ae/ha alone) turned out to be 80%. Further, the plant injury at 35 g/ha stood at 95% in the assay with Corn (ZEAMX) (Zea mays, post-emergence, 504 h, Trial 2 Trt 16, B2 0 g ae/ha, Diclosulam 35 g ai or ae/ha alone) and 70% with Corn (ZEAMX) (Zea mays, post-emergence, 504 h, Trial Bridge 1, diclosulam 35 g ai or ae/ha alone (compound rate 0), single replicate).
